In assay [1] the test system is triple-negative breast cancer cells. The conditions noted are these: sequential but not simultaneous application of erlotinib and doxorubicin, time interval of about 24 hours; cited from earlier work.
The next assay has as its system CD95-HeLa cells. Put plainly: Live-cell imaging with drug perfusion: CD95L-induced apoptosis under RL-optimized versus constant concentration trajectory. It is filed as cell-based, human. How it is done: The experimental setup consisted of an automated live-cell microscope and infusion pumps for empty medium or CD95L stock solution placed inside a standard cell culture incubator. The microscope was combined with a surrounding, separable, autoclavable box for ensuring a sterile environment inside the incubator. Empty medium and the CD95L stock solution were guided through silicon tubes (inner diameter: 1 mm) connected to a t-shaped adapter piece. The t-adapter was connected with a microfluidic chip containing approximately 80,000 CD95-HeLa cells (human cervix carcinoma cell line overexpressing CD95 death receptors). Thereby, cells could be perfused by a mixture of CD95L stock solution and empty medium. For adjusting the CD95L concentration in each step of an experiment, a constant volume of 0.8 ml was infused. This volume comprised varying fractions of CD95L stock solution and empty medium. […] The total dose was set to 400 ng of CD95L according to a stock solution volume of 1.6 ml. Accordingly, cells could be perfused with CD95L at concentrations between zero and the stock concentration. During the experiment, images of the perfused cells were recorded every 3 minutes using the live-cell microscope. […]

Regarding `COc1cccc2c1C(=O)c1c(O)c3c(c(O)c1C2=O)C[C@@](O)(C(=O)CO)C[C@@H]3O[C@H]1C[C@H](N)[C@H](O)[C@H](C)O1` [doxorubicin], in assay [1], the cell death result is on record as “maximizes cell death”.

On to `C#Cc1cccc(Nc2ncnc3cc(OCCOC)c(OCCOC)cc23)c1` [erlotinib], for which the cell death result in assay [1] is recorded as “maximizes cell death”.

B1: CD95L: CD95 cell death ligand; binds CD95 death receptors and induces apoptosis (protein, UniProt P48023 130-281, looked up)
Tumor necrosis factor ligand …: QIGHPSPPPEKKELRKVAHLTGKSNSRSMPLEWEDTYGIVLLSGVKYKKGGLVINETGLYFVYSKVYFRGQSCNNLPLSHKVYMRNSKYPQDLVMMEGKMMSYCTTGQMWARSSYLGAVFNLTSADHLYVNVSELSLVNFEESQTFFGLYKL
As for B1, the “cell death kinetics (apoptotic cell fractions)” value in the assay with CD95-HeLa cells (first RL-optimized CD95L concentration trajectory vs constant 50 ng/ml, same total dose 400 ng, 180 minutes, FIG. 13F) is “substantially accelerated cell death kinetics”. The “cell death (apoptotic cell fractions)” value with CD95-HeLa cells (optimized CD95L trajectory from second RL iteration vs constant concentration or first-iteration trajectory, total dose 400 ng, FIG. 14G) is recorded as “accelerated cell death”.

The record behind these values is patent US20220406434A1, “METHOD AND SYSTEM FOR EVALUATING OPTIMIZED CONCENTRATION TRAJECTORIES FOR DRUG ADMINISTRATION” (DEUTSCHES KREBSFORSCHUNGSZENTRUM STIFTUNG DES OEFFENTLICHEN …, priority 2019, published 2022).
